We go through 26 compounds from patent US20250026762A1, “FUSED PYRAZOLE UREA ANALOGS AS GLUCOSYLCERAMIDE SYNTHASE INHIBITORS” (Merck Sharp & Dohme LLC, priority 2021, published 2025).

The target of this test is glucosylceramide synthase (GCS) enzyme in Golgi preparations from human A375 malignant melanoma skin cells (Homo sapiens (Human), UniProt Q16739). Description: UDP-Glo glucosylceramide synthase biochemical assay. Particulars: 1.5 μg crude golgi preparation; C6 ceramide and UDP-glucose at 2×Km; 20 h incubation at room temperature; luminescence. The text has this: UDP-Glo™ Glucosylceramide Synthase Biochemical Assay
Sequence of glucosylceramide synthase (GCS) enzyme in Golgi preparations from human A375 malignant melanoma skin cells (Q16739 whole entry): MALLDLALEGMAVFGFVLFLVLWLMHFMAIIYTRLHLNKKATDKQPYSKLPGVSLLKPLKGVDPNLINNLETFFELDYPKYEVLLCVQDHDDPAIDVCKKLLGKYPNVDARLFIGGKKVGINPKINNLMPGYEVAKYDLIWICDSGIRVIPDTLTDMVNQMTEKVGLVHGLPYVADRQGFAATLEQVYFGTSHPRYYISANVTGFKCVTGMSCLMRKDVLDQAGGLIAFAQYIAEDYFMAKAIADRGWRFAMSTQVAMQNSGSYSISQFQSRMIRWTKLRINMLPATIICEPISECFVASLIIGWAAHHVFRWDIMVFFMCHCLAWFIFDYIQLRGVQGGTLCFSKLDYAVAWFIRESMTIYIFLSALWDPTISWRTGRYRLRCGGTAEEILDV
A UDP-Glo™ glucosylceramide synthase biochemical assay was utilized to evaluate the effect of test compounds on the activity of endogenous levels of GCS enzyme contained within Golgi preparations isolated from human A375 malignant melanoma skin cells. The UDP-Glo™ glucosylceramide synthase assay uses UDP-Glucose as a nucleotide-glycosyl donor and ceramide as substrate acceptor molecules. In the reaction, glucosylceramide synthase (GCS) transfers glucose from UDP-Glucose to ceramide. Glucosylceramide and UDP are released as products.
Using Promega's UDP-Glo™ Glycosyltransferase assay kit (Promega Corporation, Madison, WI, USA (Promega)), GCS activity was indirectly measured by detecting the amount of UDP produced. An aliquot of GCS enzyme (1.5 μg crude golgi preparation, total protein) and titrated test compound were aliquoted to each well and incubated for 30 minutes at room temperature. Substrate mixture was prepared by mixing C6 ceramide (Avanti Polar Lipids, Alabaster, AL USA (Avanti)) (micelles prepared at 0.6 mM in 0.6 mM DOPC) and UDP-glucose (20 μM; Promega), at concentrations equivalent to 2×Km, in assay buffer (25 mM HEPES (pH 7.5), 50 mM KCl, 5 mM MgCl2). An equivalent volume of substrate mixture was then added to each well. Following a 20 h incubation at room temperature to allow for GCS turnover of substrate, an equal volume of UDP detection reagent (Promega) was added to each well and incubated for an additional 75 minutes at room temperature to simultaneously convert the accumulated UDP product into ATP and generate light in a luciferase reaction. The generated light was detected using a luminometer. […] luminescence values (RLUs) were normalized to mean “min” and “max” effects, as determined on each plate. “Min” was defined as the mean of the values of the wells treated with vehicle (DMSO) and which represent 0% inhibition; “max” was defined as the mean of the values of the wells treated with a reference inhibitor and which represent the 100% effect. Values for % Emax and EC50 were determined by best-fitting the normalized data to a curve in Activity Base along a four-parameter logistic nonlinear regression (4PL) model (based on the Levenberg-Marquardt algorithm and defined by the equation below): […]
where: n is 4PMin (bottom of the curve); m is 4PMax (top of the curve); i is IP (inflection point of curve); andp is slope. See Levenberg, K., “A Method for the Solution of Certain Problems in Least Squares”, Quart. Appl. Math. 2, (1944), pp 164-168 and Marquardt, D., “An Algorithm for Least Squares Estimation on Nonlinear Parameters”, SIAM J. Appl. Math. 11, (1963) pp 431-441.

`Cn1nc(C(F)(F)F)cc1-c1nn(C(=O)N2CCN3CCC2CC3)c2c1CCC2` [Compound 33, 1,4-diazabicyclo[3.2.2]nonan-4-yl-[3-[2-methyl-5-(trifluoromethyl)pyrazol-3-yl]-5,6-dihydro-4H-cyclopenta[c]pyrazol-1-yl]methanone] came in with an EC50 of 5.9 nM.

`O=C(N1CCN2CCC1CC2)n1nc(N2CCC(F)(F)CC2)c2c1CCC2` [Compound 51, (1,4-diazabicyclo[3.2.2]nonan-4-yl)(3-(4,4-difluoropiperidin-1-yl)-5,6-dihydrocyclopenta[c]pyrazol-1(4H)-yl)methanone]: the EC50 was 7 nM.

`O=C(N1CCN2CCC1CC2)n1nc(N2CCC3(CC2)CC3)c2c1COCC2` [Compound 52, (3-(6-azaspiro[2.5]octan-6-yl)-4,7-dihydropyrano[3,4-c]pyrazol-1(5H)-yl)(1,4-diazabicyclo[3.2.2]nonan-4-yl)methanone] gave an EC50 of 18.3 nM.

In the case of `Cc1ccc(-c2nn(C(=O)N3CCN4CCC3CC4)c3c2CCC3)cc1` [Compound 31, 1,4-diazabicyclo[3.2.2]nonan-4-yl-[3-(p-tolyl)-5,6-dihydro-4H-cyclopenta[c]pyrazol-1-yl]methanone], the response was half-maximal at 0.2 nM (EC50).

`CC1(C)Cc2c(c(-c3ccc(F)cc3)nn2C(=O)N2CCN3CCC2CC3)CO1` [Compound 18, (1,4-diazabicyclo[3.2.2]nonan-4-yl)(3-(4-fluorophenyl)-6,6-dimethyl-6,7-dihydropyrano[4,3-c]pyrazol-1(4H)-yl)methanone] returned an EC50 of 9.8 nM.

In turn, `CC1CCc2c(-c3ccc(F)cc3)nn(C(=O)N3CCN4CCC3CC4)c2O1` (stereo not drawn) [Compound 63, R and S-(1,4-diazabicyclo-[3.2.2]nonan-4-yl)(3-(4-fluorophenyl)-6-methyl-5,6-dihydropyrano[2,3-c]pyrazol-1(4H)-yl)methanone] yielded an EC50 of 17.5 nM.

`O=C(N1CCN2CCC1CC2)n1nc(-n2cc(Cl)cn2)c2c1CCC2` [Compound 56, (1,4-diazabicyclo[3.2.2]nonan-4-yl)(3-(4-chloro-1H-pyrazol-1-yl)-5,6-dihydrocyclopenta[c]pyrazol-1(4H)-yl)methanone] registered a half-maximal effective concentration (EC50) of 3 nM.

Turning to `COc1c(F)cccc1-c1nn(C(=O)N2CCN3CCC2CC3)c2c1CCC2` [Compound 38, 1,4-diazabicyclo[3.2.2]nonan-4-yl-[3-(3-fluoro-2-methoxy-phenyl)-5,6-dihydro-4H-cyclopenta[c]pyrazol-1-yl]methanone], the EC50 is 0.6 nM.

`Cn1ncc2ccc(-c3nn(C(=O)N4CCN5CCC4CC5)c4c3CCC4)cc21` [Compound 22, 1,4-diazabicyclo[3.2.2]nonan-4-yl-[3-(1-methylindazol-6-yl)-5,6-dihydro-4H-cyclopenta[c]pyrazol-1-yl]methanone]: the EC50 stood at 6.3 nM.

In turn, `O=C(N1CCN2CCC1CC2)n1nc(-c2ccc(F)cc2)c2c1[C@H]1C[C@H]1C2` [Compound 11, (1,4-diazabicyclo[3.2.2]nonan-4-yl)((4aS,5aS)-3-(4-fluorophenyl)-4,4a,5,5a-tetrahydro-1H-cyclopropa[4,5]cyclopenta[1,2-c]pyrazol-1-yl)methanone] showed an EC50 of 0.1 nM.

In turn, `O=C(N1CCN2CCC1CC2)n1nc(-c2ccc(Cl)cn2)c2c1CCOC2` [Compound 48, (1,4-diazabicyclo[3.2.2]nonan-4-yl)(3-(5-chloropyridin-2-yl)-6,7-dihydropyrano[4,3-c]pyrazol-1(4H)-yl)methanone] had an EC50 of 2 nM.

`COc1nccc(-c2nn(C(=O)N3CCN4CCC3CC4)c3c2CCOC3)c1Cl` [Compound 34, (1,4-diazabicyclo[3.2.2]nonan-4-yl)(3-(3-chloro-2-methoxypyridin-4-yl)-4,7-dihydropyrano[3,4-c]pyrazol-1(5H)-yl)methanone] registered an EC50 of 15.3 nM.

In turn, `O=C(N1CCN2CCC1CC2)n1nc(-c2ccc(F)cc2)c2c1CC1CC21` (single isomer, unassigned) [Compound 15, (R,R) or (S,S)--(1,4-diazabicyclo[3.2.2]nonan-4-yl)(3-(4-fluorophenyl)-3b,4,4a,5-tetrahydro-1H-cyclopropa[3,4]cyclopenta[1,2-c]pyrazol-1-yl)methanone] registered an EC50 of 0.1 nM.

Compound `O=C(N1CCN2CCC1CC2)n1nc(-c2ccc(F)cc2)c2c1CCC(F)(F)C2` [Compound 19, (1,4-diazabicyclo[3.2.2]nonan-4-yl)(5,5-difluoro-3-(4-fluorophenyl)-4,5,6,7-tetrahydro-1H-indazol-1-yl)methanone] displayed an EC50 of 8.2 nM.

`Cc1ccccc1-c1nn(C(=O)N2CCN3CCC2CC3)c2c1CCOC2` [Compound 28, (1,4-diazabicyclo[3.2.2]nonan-4-yl)(3-(o-tolyl)-4,7-dihydropyrano[3,4-c]pyrazol-1(5H)-yl)methanone]: the EC50 was 6.6 nM.

Take `COc1ccc(F)c(-c2nn(C(=O)N3CCN4CCC3CC4)c3c2CCC3)c1` [Compound 44, 1,4-diazabicyclo[3.2.2]nonan-4-yl-[3-(2-fluoro-5-methoxy-phenyl)-5,6-dihydro-4H-cyclopenta[c]pyrazol-1-yl]methanone]: the EC50 came to 1.7 nM.

As for `O=C(N1CCN2CCC1CC2)n1nc(-n2cc(C(F)(F)F)cn2)c2c1CCOC2` [Compound 59, (1,4-diazabicyclo[3.2.2]nonan-4-yl)(3-(4-(trifluoromethyl)-1H-pyrazol-1-yl)-6,7-dihydropyrano[4,3-c]pyrazol-1(4H)-yl)methanone], the EC50 was 3.1 nM.

Turning to `O=C(N1CCN2CCC1CC2)n1nc(-n2cc(C(F)(F)F)cn2)c2c1CCC2` [Compound 54, (1,4-diazabicyclo[3.2.2]nonan-4-yl)(3-(4-(trifluoromethyl)-1H-pyrazol-1-yl)-5,6-dihydrocyclopenta[c]pyrazol-1(4H)-yl)methanone], the EC50 is 0.8 nM.

In turn, `CC1(C)CCCN(c2nn(C(=O)N3CCN4CCC3CC4)c3c2CCC3)C1` [Compound 24, (1,4-diazabicyclo[3.2.2]nonan-4-yl)(3-(3,3-dimethylpiperidin-1-yl)-5,6-dihydrocyclopenta[c]pyrazol-1(4H)-yl)methanone] yielded an EC50 of 7.8 nM.

For the compound `COc1ncc(-c2nn(C(=O)N3CCN4CCC3CC4)c3c2COCC3)cc1Cl` [Compound 47, (1,4-diazabicyclo[3.2.2]nonan-4-yl)(3-(5-chloro-6-methoxypyridin-3-yl)-6,7-dihydropyrano[4,3-c]pyrazol-1(4H)-yl)methanone], the EC50 turned out to be 8.3 nM.

Regarding `COc1ccc(-c2nn(C(=O)N3CCN4CCC3CC4)c3c2CCOC3)cc1Cl` [Compound 3, 1,4-diazabicyclo[3.2.2]nonan-4-yl(3-(3-chloro-4-methoxyphenyl)-4,5-dihydropyrano[3,4-c]pyrazol-1(7H)-yl)methanone], the EC50 stood at 1.4 nM.

On to `Cc1cccc(-c2nn(C(=O)N3CCN4CCC3CC4)c3c2COCC3)c1F` [Compound 39, (1,4-diazabicyclo[3.2.2]nonan-4-yl)(3-(2-fluoro-3-methylphenyl)-6,7-dihydropyrano[4,3-c]pyrazol-1(4H)-yl)methanone], for which the EC50 stood at 0.3 nM.

On to `COc1ncc(-c2nn(C(=O)N3CCN4CCC3CC4)c3c2CCOC3)cc1Cl` [Compound 32, (1,4-diazabicyclo[3.2.2]nonan-4-yl)(3-(5-chloro-6-methoxypyridin-3-yl)-4,7-dihydropyrano[3,4-c]pyrazol-1(5H)-yl)methanone], for which the EC50 was found to be 7.6 nM.

`O=C(N1CCN2CCC1CC2)n1nc(-c2ccc(Cl)cn2)c2c1COCC2` [Compound 23, (1,4-diazabicyclo[3.2.2]nonan-4-yl)(3-(5-chloropyridin-2-yl)-4,7-dihydropyrano[3,4-c]pyrazol-1(5H)-yl)methanone]: a half-maximal effect (EC50) was put at 3.7 nM.

For the compound `O=C(N1CCN2CCC1CC2)n1nc(C23CCCC2C3)c2c1CCC2` (single isomer, unassigned) [Compound 9, R or S-(3-(bicyclo[3.1.0]hexan-1-yl)-5,6-dihydrocyclopenta[c]pyrazol-1(4H)-yl)(1,4-diazabicyclo[3.2.2]nonan-4-yl)methanone], the EC50 was 2.4 nM.

`O=C(N1CCN2CCC1CC2)n1nc(-c2cc(Cl)ccc2F)c2c1COCC2` [Compound 29, (1,4-diazabicyclo[3.2.2]nonan-4-yl)(3-(5-chloro-2-fluorophenyl)-4,7-dihydropyrano[3,4-c]pyrazol-1(5H)-yl)methanone] had an EC50 of 3.8 nM.

In general, EC50 refers to the concentration that produces a half-maximal response.
